# Data: ChEMBL document CHEMBL3872220, “Amphiphilic xanthones as a potent chemical entity of anti-mycobacterial agents with membrane-targeting properties” (Eur J Med Chem, 2016)
# What was measured:
# [1] = Hemolytic activity against New Zealand white rabbit RBC assessed as hemoglobin release measured after 1 hr; format: ADME, cell-based, Oryctolagus cuniculus, Erythrocyte; details: red blood cells
# [2] = test system: Mycolicibacterium smegmatis; assay: Antimycobacterial activity against Mycobacterium smegmatis MC2 155 after 24 hrs by broth dilution assay; format: functional; details: str. MC2 155, 24 h
# Staphylococcus aureus [3] = assay: Antibacterial activity against Staphylococcus aureus isolate DM4001; format: functional
# Staphylococcus aureus [4] = assay: Antibacterial activity against methicillin-resistant Staphylococcus aureus isolate DM21455; format: functional
# [5] = test system: Mycolicibacterium smegmatis; assay: Bactericidal activity against Mycobacterium smegmatis MC2 155 assessed as log reduction in bacterial colonies up to 8 times MIC measured after 24 hrs by time-kill assay; format: functional, str. MC2 155
# [6] = test system: Mycolicibacterium smegmatis; assay: Antimycobacterial activity against Mycobacterium smegmatis MC2 155 assessed as inhibition of respiratory ATP synthesis by measuring ATP level at 4 times MIC measured after 1 hr by luciferase reporter gene assay (reference value: 90.6%); format: functional, str. MC2 155; design: scale not given: the % may be the effect or the level left
# [7] = test system: Mycolicibacterium smegmatis; assay: Antimycobacterial activity against Mycobacterium smegmatis MC2 155 assessed as inhibition of respiratory ATP synthesis by measuring ATP level at 4 times MIC measured after 6 hrs by luciferase reporter gene assay (reference value: 212.7%); format: functional, str. MC2 155; design: scale not given: the % may be the effect or the level left
# [8] = test system: Mycolicibacterium smegmatis; assay: Antimycobacterial activity against Mycobacterium smegmatis MC2 155 assessed as inhibition of respiratory ATP synthesis by measuring ATP level at 4 times MIC measured after 6 hrs by luciferase reporter gene assay (reference value: 152%); format: functional, str. MC2 155; design: scale not given: the % may be the effect or the level left
# [9] = test system: Mycolicibacterium smegmatis; assay: Antimycobacterial activity against Mycobacterium smegmatis MC2 155 assessed as inhibition of respiratory ATP synthesis by measuring ATP level at 2 times MIC measured after 3 hrs by luciferase reporter gene assay (reference value: 158.3%); format: functional, str. MC2 155; design: scale not given: the % may be the effect or the level left
# [10] = test system: Mycolicibacterium smegmatis; assay: Antimycobacterial activity against Mycobacterium smegmatis MC2 155 assessed as inhibition of respiratory ATP synthesis by measuring ATP level at 800 ug/ml measured after 1 hr by luciferase reporter gene assay (reference value: 90.6%); format: functional, str. MC2 155; design: scale not given: the % may be the effect or the level left
# [11] = test system: Mycolicibacterium smegmatis; assay: Antimycobacterial activity against Mycobacterium smegmatis MC2 155 assessed as inhibition of respiratory ATP synthesis by measuring ATP level at 800 ug/ml measured after 3 hrs by luciferase reporter gene assay (reference value: 158.3%); format: functional, str. MC2 155; design: scale not given: the % may be the effect or the level left
# [12] = test system: Mycolicibacterium smegmatis; assay: Antimycobacterial activity against Mycobacterium smegmatis MC2 155 assessed as inhibition of respiratory ATP synthesis by measuring ATP level at 800 ug/ml measured after 6 hrs by luciferase reporter gene assay (reference value: 152%); format: functional, str. MC2 155; design: scale not given: the % may be the effect or the level left
# [13] = test system: Mycolicibacterium smegmatis; assay: Antimycobacterial activity against Mycobacterium smegmatis MC2 155 assessed as inhibition of respiratory ATP synthesis by measuring ATP level at 800 ug/ml measured after 9 hrs by luciferase […] assay (reference value: 212.7%); format: functional, str. MC2 155; design: scale not given: the % may be the effect or the level left
# [14] = Oral bioavailability in Sprague-Dawley rat; format: ADME, organism-based; details: in vivo
# [15] = Cytotoxicity against human corneal fibroblasts assessed as increase in LDH level measured after 4 hrs by Cytotox-one […] assay; format: toxicity, Corneal fibroblast
# CYP2C19 = CYP2C19 (Homo sapiens, UniProt P33261); assay: Inhibition of CYP2C19 in human liver microsomes at 10 uM using omeprazole as substrate preincubated for 5 min followed by NADPH addition measured after 10 mins by LC-MS/MS method relative to control; format: ADME; details: probe omeprazole
# Sequence of CYP2C19 (P33261 whole entry): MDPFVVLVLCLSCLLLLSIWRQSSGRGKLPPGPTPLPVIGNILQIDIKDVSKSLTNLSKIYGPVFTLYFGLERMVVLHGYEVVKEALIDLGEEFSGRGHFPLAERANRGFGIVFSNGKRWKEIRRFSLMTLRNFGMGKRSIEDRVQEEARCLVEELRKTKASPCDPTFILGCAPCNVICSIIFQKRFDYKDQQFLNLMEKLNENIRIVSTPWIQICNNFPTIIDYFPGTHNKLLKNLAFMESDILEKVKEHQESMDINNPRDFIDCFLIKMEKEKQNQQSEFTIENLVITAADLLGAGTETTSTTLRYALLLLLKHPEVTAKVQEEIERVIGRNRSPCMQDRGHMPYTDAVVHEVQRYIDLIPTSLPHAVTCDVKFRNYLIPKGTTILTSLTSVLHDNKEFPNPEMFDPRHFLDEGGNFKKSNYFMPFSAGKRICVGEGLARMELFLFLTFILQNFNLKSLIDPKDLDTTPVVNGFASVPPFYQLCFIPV
# [16] = Half life in rat liver microsomes at 1 uM preincubated for 5 mins followed by NADPH addition measured by LC-MS/MS method; format: ADME
# CYP2D6 = CYP2D6 (Homo sapiens, UniProt P10635); assay: Inhibition of CYP2D6 in human liver microsomes at 10 uM using bufuralol as substrate preincubated for 5 min followed by NADPH addition measured after 10 mins by LC-MS/MS method relative to control; format: ADME; details: probe bufuralol
# Sequence of CYP2D6 (P10635 whole entry): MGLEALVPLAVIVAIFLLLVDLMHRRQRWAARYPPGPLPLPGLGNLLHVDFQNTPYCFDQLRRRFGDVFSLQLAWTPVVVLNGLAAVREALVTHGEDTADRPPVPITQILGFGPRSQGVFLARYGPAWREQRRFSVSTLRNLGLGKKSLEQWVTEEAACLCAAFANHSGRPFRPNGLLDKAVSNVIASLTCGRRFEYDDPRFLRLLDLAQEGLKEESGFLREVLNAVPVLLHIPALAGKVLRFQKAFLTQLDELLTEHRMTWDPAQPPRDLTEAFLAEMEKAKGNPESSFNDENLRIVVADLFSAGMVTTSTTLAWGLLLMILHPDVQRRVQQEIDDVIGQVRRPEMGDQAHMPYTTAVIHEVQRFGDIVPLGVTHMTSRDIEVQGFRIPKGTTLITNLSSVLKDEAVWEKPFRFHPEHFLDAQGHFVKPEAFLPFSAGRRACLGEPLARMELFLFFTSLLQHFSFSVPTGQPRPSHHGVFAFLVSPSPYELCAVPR
# [17] = Cytotoxicity against human corneal fibroblasts assessed as reduction in ATP level measured after 4 hrs by Celltiter-Glo luminescent assay; format: toxicity, Corneal fibroblast
# CYP3A4 = CYP3A4 (Homo sapiens, UniProt P08684); assay: Inhibition of CYP3A4 in human liver microsomes at 10 uM using midazolam as substrate preincubated for 5 min followed by NADPH addition measured after 10 mins by LC-MS/MS method relative to control; format: ADME; details: probe midazolam
# Sequence of CYP3A4 (P08684 whole entry): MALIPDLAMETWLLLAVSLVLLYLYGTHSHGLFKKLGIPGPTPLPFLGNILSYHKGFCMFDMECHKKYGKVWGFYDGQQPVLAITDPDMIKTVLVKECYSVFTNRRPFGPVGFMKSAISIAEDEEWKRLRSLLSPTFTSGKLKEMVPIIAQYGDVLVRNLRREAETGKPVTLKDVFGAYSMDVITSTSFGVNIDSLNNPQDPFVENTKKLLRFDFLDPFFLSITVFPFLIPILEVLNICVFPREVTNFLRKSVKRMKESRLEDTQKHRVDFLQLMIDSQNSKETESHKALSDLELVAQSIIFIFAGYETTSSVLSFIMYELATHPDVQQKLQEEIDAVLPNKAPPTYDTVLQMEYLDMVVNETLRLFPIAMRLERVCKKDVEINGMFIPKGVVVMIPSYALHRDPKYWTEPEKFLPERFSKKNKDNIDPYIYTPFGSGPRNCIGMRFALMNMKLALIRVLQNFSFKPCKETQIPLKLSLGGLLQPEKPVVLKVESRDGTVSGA
# [18] = Drug metabolism in rat liver microsomes at 1 uM preincubated for 5 mins followed by NADPH addition measured up to 30 mins by LC-MS/MS method; format: ADME; details: read-out: Drug metabolism
# [19] = test system: Mycolicibacterium smegmatis; assay: Antimycobacterial activity against Mycobacterium smegmatis by CLSI method; format: functional
# Mycobacterium xenopi = assay: Antimycobacterial activity against Mycobacterium xenopi by CLSI method; format: functional
# [20] = test system: Mycobacterium intracellulare; assay: Antimycobacterial activity against Mycobacterium intracellulare by CLSI method; format: functional
# [21] = test system: Mycobacterium tuberculosis; assay: Antimycobacterial activity against Mycobacterium tuberculosis H37Ra measured after 7 days by alamar blue assay; format: functional; details: 168 h
# Mycobacteroides chelonae = assay: Antimycobacterial activity against Mycobacterium chelonae by CLSI method; format: functional
# [22] = Cytotoxicity against human MRC5 SV2 cells measured after 72 hrs by resazurin based fluorescence assay; format: toxicity, cell-based
smiles,measurement,setting,value
COc1c(OCCCCN2CCOCC2)cc2oc3cc(OCCCCN4CCOCC4)c(CC=C(C)C)c(OCCCCN4CCOCC4)c3c(=O)c2c1CC=C(C)C,HC50 at 1 h,[1],> 240 µM
same,MIC90,[2],> 30 µM
COc1c(OCC(O)CNCCNCCNCCN)cc2oc3cc(OCC(O)CNCCNCCNCCN)c(CC=C(C)C)c(O)c3c(=O)c2c1CC=C(C)C (stereo not drawn),MIC,Staphylococcus aureus [3],15 µM
same,HC50 at 1 h,[1],155 µM
same,MIC90,[2],> 30 µM
same,MIC,Staphylococcus aureus [4],15 µM
NNC(=O)c1ccncc1 [ISONIAZID],Activity,[5],1.2
same,MIC90,[2],15 µM
COc1c(OCCCCN(C)C)cc2oc3cc(OCCCCN(C)C)c(CCC(C)C)c(O)c3c(=O)c2c1CCC(C)C,MIC90,[2],6.4 µM
CCN(CC)CC(O)COc1cc2oc3cc(OCC(O)CN(CC)CC)c(OC)c(CC=C(C)C)c3c(=O)c2c(O)c1CC=C(C)C (stereo not drawn),HC50 at 1 h,[1],108 µM
same,MIC90,[2],6.4 µM
CCN(CC)CCCCOc1ccc2c(=O)c3c(O)cc(OCCCCN(CC)CC)cc3oc2c1,HC50 at 1 h,[1],> 401 µM
same,MIC90,[2],> 30 µM
CN[C@@H]1[C@H](O[C@H]2[C@H](O[C@H]3[C@H](O)[C@@H](O)[C@H](N=C(N)N)[C@@H](O)[C@@H]3N=C(N)N)O[C@@H](C)[C@]2(O)C=O)O[C@@H](CO)[C@H](O)[C@H]1O [STREPTOMYCIN],Activity,[6],114.4%
same,MIC90,[2],0.625 µM
same,Activity,[7],75.7%
same,Activity,[8],59.9%
same,Activity,[9],75.7%
COc1c(OCC(O)CNCCNC(=N)N)cc2oc3cc(OCC(O)CNCCNC(=N)N)c(CC=C(C)C)c(O)c3c(=O)c2c1CC=C(C)C (stereo not drawn),MIC,Staphylococcus aureus [3],5 µM
same,HC50 at 1 h,[1],141 µM
same,MIC90,[2],> 30 µM
same,MIC,Staphylococcus aureus [4],5 µM
C(=NC1CCCCC1)=NC1CCCCC1 [DICYCLOHEXYLCARBODIIMIDE],Activity,[10],7%
same,Activity,[11],6.7%
same,Activity,[12],11.1%
same,Activity,[13],13.3%
CO[C@H]1/C=C/O[C@@]2(C)Oc3c(C)c(O)c4c(c3C2=O)C2=NC3(CCN(CC(C)C)CC3)NC2=C(NC(=O)/C(C)=C\C=C\[C@H](C)[C@H](O)[C@@H](C)[C@@H](O)[C@@H](C)[C@H](OC(C)=O)[C@@H]1C)C4=O [RIFABUTIN],bioavailability,[14],20%
CCN(CC)CCCCOc1cc2oc3cc(OCCCCN(CC)CC)c(OC)c(CC=C(C)C)c3c(=O)c2c(OCCCCN(CC)CC)c1CC=C(C)C,CC50 at 4 h,[15],> 150 µM
same,"inhibition at 10 min, 10 µM",CYP2C19,10%
same,HC50 at 1 h,[1],> 252 µM
same,half-life at 1 µM,[16],> 30 min
same,"inhibition at 10 min, 10 µM",CYP2D6,30%
same,MIC90,[2],> 30 µM
same,CC50 at 4 h,[17],43.7 µM
same,"inhibition at 10 min, 10 µM",CYP3A4,40%
same,"metabolised at 0.5 h, 1 µM",[18],11.6%
COc1c(OCC(O)CNC(CO)(CO)CO)cc2oc3cc(OCC(O)CNC(CO)(CO)CO)c(CC=C(C)C)c(O)c3c(=O)c2c1CC=C(C)C (stereo not drawn),HC50 at 1 h,[1],33.2 µM
same,MIC90,[2],26 µM
COc1c(O)cc2oc3cc(O)c(CC=C(C)C)c(O)c3c(=O)c2c1CC=C(C)C [MANGOSTIN],MIC,[19],3.7 µM
same,MIC,Mycobacterium xenopi,3.7 µM
same,MIC,[20],3.7 µM
same,MIC,[21],6.25 µg/mL
same,MIC,Mycobacteroides chelonae,3.7 µM
same,CC50 at 72 h,[22],7.5 µM
COc1c(OCC(O)CNCCN)cc2oc3cc(OCC(O)CNCCN)c(CC=C(C)C)c(O)c3c(=O)c2c1CC=C(C)C (stereo not drawn),MIC,Staphylococcus aureus [3],10 µM
same,HC50 at 1 h,[1],125 µM
same,MIC90,[2],> 30 µM
same,MIC,Staphylococcus aureus [4],5 µM
